Results on five compounds are retold here after ChEMBL document CHEMBL4613212, “Insights of synthetic analogues of anti-leprosy agents” (Bioorg Med Chem, 2019).

In brackets after ≈: the same amount, converted by molar mass.

In data set [1] the test system is Mycobacterium tuberculosis. The experiment in a line: Antitubercular activity against Mycobacterium tuberculosis H37Rv ATCC 27294 assessed as growth inhibition at 6.25 ug/ml by microplate alamar blue assay relative to control. Format: functional.
Data set [2] is described as follows: Selectivity index, ratio of IC50 for African green monkey Vero cells to MIC for antitubercular activity against Mycobacterium tuberculosis H37Rv. Format: toxicity. As to conditions: Vero cells, read-out: Selectivity Index.
Data set [3] deals with Mycobacterium tuberculosis. Briefly: Antitubercular activity against Mycobacterium tuberculosis H37Rv ATCC 27294 infected in bone marrow macrophages assessed as reduction in growth after 7 days. Format: functional. As to conditions: H37Rv ATCC 27294, 168 h.
Data set [4] concerns Mycobacterium tuberculosis. Briefly: Antitubercular activity against Mycobacterium tuberculosis H37Rv ATCC 27294 assessed as inhibition of [3H]-thymidine incorporation relative to control. Format: functional.
For data set [5], the system named is Mycobacterium leprae. The experiment in a line: Antimicrobial activity against Mycobacterium leprae assessed as microbial growth at 0.375 ug/ml in presence of 0.1 ug/ml rifampin measured at 4 weeks (reference value: 147 +/- 19.1%). Format: functional.
The subject of data set [6] is Mycobacterium leprae. Briefly: Antimicrobial activity against Mycobacterium leprae assessed as microbial growth at 0.375 ug/ml in presence of 0.2 ug/ml rifampin measured at 4 weeks (reference value: 147 +/- 19.1%). Format: functional.
Data set [7] concerns Mycobacterium leprae. Briefly: Antimicrobial activity against Mycobacterium leprae assessed as microbial growth at 0.1875 ug/ml in presence of 0.025 ug/ml rifabutin measured at 4 weeks (reference value: 147 +/- 19.1%). Format: functional.
The test system of data set [8] is Mycobacterium leprae. The experiment in a line: Antimicrobial activity against Mycobacterium leprae assessed as microbial growth at 0.1875 ug/ml in presence of 0.05 ug/ml rifabutin measured at 4 weeks (reference value: 147 +/- 19.1%). Format: functional.
In data set [9] the test system is Mycobacterium leprae. Briefly: Antimicrobial activity against Mycobacterium leprae assessed as microbial growth at 0.1875 ug/ml in presence of 0.0062 ug/ml KRM-1648 measured at 4 weeks (reference value: 147 +/- 19.1%). Format: functional.
Data set [10] relates to Mycobacterium leprae. The experiment in a line: Antimicrobial activity against Mycobacterium leprae assessed as microbial growth at 0.1875 ug/ml in presence of 0.0125 ug/ml KRM-1648 measured at 4 weeks (reference value: 147 +/- 19.1%). Format: functional.
Data set [11] deals with Mycobacterium leprae. The experiment in a line: Antimicrobial activity against Mycobacterium leprae assessed as fractional inhibitory concentration index at 0.375 ug/ml in presence of 0.2 ug/ml rifampin measured at 4 weeks. Format: functional.
In data set [12] the test system is Mycobacterium leprae. The experiment in a line: Antimicrobial activity against Mycobacterium leprae assessed as fractional inhibitory concentration index at 0.1875 ug/ml in presence of 0.05 ug/ml rifabutin measured at 4 weeks. Format: functional.
The test system of data set [13] is Mycobacterium leprae. Briefly: Antimicrobial activity against Mycobacterium leprae assessed as fractional inhibitory concentration index at 0.1875 ug/ml in presence of 0.0125 ug/ml KRM-1648 measured at 4 weeks. Format: functional.
Data set [14] concerns Mycolicibacterium smegmatis. The experiment in a line: Antimycobacterial activity against DDS sensitive Mycobacterium smegmatis ATCC 607 […]. Format: functional.
The subject of data set [15] is Mycolicibacterium smegmatis. Briefly: Antimycobacterial activity against DDS resistant Mycobacterium smegmatis ATCC 607 […]. Format: functional.
Data set [16] deals with Mycobacterium leprae. Briefly: Anti-leprotic activity against Mycobacterium leprae infected in BALB/c mouse assessed as time delay in bacterial multiplication in footpad at 0.003 g/100g of diet administered via feed starting 60 or 75 day post infection up to 90 days by Shepard's kinetic method. Format: functional.
The test system of data set [17] is Mycobacterium tuberculosis. The experiment in a line: Antimycobacterial activity against Mycobacterium tuberculosis H37Rv by BACTEC radiometric growth assay. Format: functional.
Data set [18] concerns Mycobacterium leprae. Briefly: Anti-leprotic activity against Mycobacterium leprae infected in BALB/c weanling mouse assessed as bacteria killing at 150 mg/kg, ip administrated for 60 days and measured after 1 year by most probable number technique analysis relative to control. Format: functional.
The subject of data set [19] is Mycobacterium leprae. Briefly: Anti-leprotic activity against Mycobacterium leprae infected in BALB/c weanling mouse assessed as bacteria killing at 150 mg/kg, ip administrated cotreated with 0.0001% dietary dapsone for 60 days and measured after 1 year by most probable number technique analysis relative to control. Format: functional.
Data set [20] concerns Mycobacterium leprae. The experiment in a line: Anti-leprotic activity against Mycobacterium leprae infected in BALB/c weanling mouse assessed as bacteria killing at 150 mg/kg, ip administrated for 60 days and measured after 1 year by Spearman-Karber technique analysis relative to control. Format: functional.
The subject of data set [21] is Mycobacterium leprae. The experiment in a line: Anti-leprotic activity against Mycobacterium leprae infected in BALB/c weanling mouse assessed as bacteria killing at 150 mg/kg, ip administrated cotreated with 0.0001% dietary dapsone for 60 days and measured after 1 year by Spearman-Karber technique analysis relative to control. Format: functional.
In data set [22] the test system is Mycolicibacterium smegmatis. Briefly: Antimicrobial activity against Mycobacterium smegmatis incubated for 24 hrs by broth microdilution assay. Format: functional.
A further data set has as its system Mycolicibacterium aurum. The experiment in a line: Antimicrobial activity against Mycobacterium aurum incubated for 24 hrs by broth microdilution assay. Format: functional.
The subject of a further data set is Mycolicibacterium vaccae. The experiment in a line: Antimicrobial activity against Mycobacterium vaccae incubated for 24 hrs by broth microdilution assay. Format: functional.
Data set [23] relates to Mycolicibacterium fortuitum. Briefly: Antimicrobial activity against Mycobacterium fortuitum incubated for 24 hrs by broth microdilution assay. Format: functional.
Data set [24] relates to Mycobacterium leprae. Briefly: Antimicrobial activity against Mycobacterium leprae assessed as microbial growth at 1.5 ug/ml in presence of 0.1 ug/ml rifampin measured at 4 weeks (reference value: 147 +/- 19.1%). Format: functional.
For data set [25], the system named is Mycobacterium leprae. The experiment in a line: Antimicrobial activity against Mycobacterium leprae assessed as microbial growth at 1.5 ug/ml in presence of 0.2 ug/ml rifampin measured at 4 weeks (reference value: 147 +/- 19.1%). Format: functional.
Data set [26] deals with Mycobacterium leprae. Briefly: Antimicrobial activity against Mycobacterium leprae assessed as microbial growth at 1.5 ug/ml in presence of 0.05 ug/ml rifabutin measured at 4 weeks (reference value: 147 +/- 19.1%). Format: functional.
Data set [27] deals with Mycobacterium leprae. The experiment in a line: Antimicrobial activity against Mycobacterium leprae assessed as microbial growth at 1.5 ug/ml in presence of 0.1 ug/ml rifabutin measured at 4 weeks (reference value: 147 +/- 19.1%). Format: functional.
The test system of data set [28] is Mycobacterium leprae. The experiment in a line: Antimicrobial activity against Mycobacterium leprae assessed as microbial growth at 1.5 ug/ml in presence of 0.0125 ug/ml KRM-1648 measured at 4 weeks (reference value: 147 +/- 19.1%). Format: functional.
For data set [29], the system named is Mycobacterium leprae. The experiment in a line: Antimicrobial activity against Mycobacterium leprae assessed as microbial growth at 1.5 ug/ml in presence of 0.025 ug/ml KRM-1648 measured at 4 weeks (reference value: 147 +/- 19.1%). Format: functional.
Data set [30] has as its system Mycobacterium leprae. The experiment in a line: Antimicrobial activity against Mycobacterium leprae assessed as fractional inhibitory concentration index at 1.5 ug/ml in presence of 0.2 ug/ml rifampin measured at 4 weeks. Format: functional.
Data set [31] has as its system Mycobacterium leprae. The experiment in a line: Antimicrobial activity against Mycobacterium leprae assessed as fractional inhibitory concentration index at 1.5 ug/ml in presence of 0.1 ug/ml rifabutin measured at 4 weeks. Format: functional.
For data set [32], the system named is Mycobacterium leprae. Briefly: Antimicrobial activity against Mycobacterium leprae assessed as fractional inhibitory concentration index at 1.5 ug/ml in presence of 0.025 ug/ml KRM-1648 measured at 4 weeks. Format: functional.

Turning to `Clc1nc(-c2ccco2)c2ncn(Cc3ccccc3)c2n1`, the inhibition at 6.25 µg/mL in [1] is more than 90%. Moreover, in data set [2], the selectivity ratio is 10.6. For the same compound, the EC99 in data set [3] was 8 µg/mL. Besides, the “inhibition (INH)” value in [4] came to 27%.
In the case of `C[C@H]1COc2c(N3CCN(C)CC3)c(F)cc3c(=O)c(C(=O)O)cn1c23.C[C@H]1COc2c(N3CCN(C)CC3)c(F)cc3c(=O)c(C(=O)O)cn1c23.O` [LEVOFLOXACIN], the Activity is on record as 87% in the data set with Mycobacterium leprae [5]; 0% with Mycobacterium leprae [6]; 133% in the data set on Mycobacterium leprae [7]; 0% in the data set with Mycobacterium leprae [8]; 115% with Mycobacterium leprae [9]; 0% in the data set with Mycobacterium leprae [10]. In addition, the “fractional inhibitory concentration index (FICI)” value with Mycobacterium leprae [11] worked out at 1; in the data set with Mycobacterium leprae [12], 0.5; in the data set on Mycobacterium leprae [13] it was 0.5.
As to `Nc1ccc(S(=O)(=O)c2cccc(N)c2)cc1`, the MIC in data set [14] was found to be 24.2 µg/mL (≈ 97.5 µM); in data set [15], 1300 µg/mL (≈ 5240 µM). The Time in the data set on Mycobacterium leprae [16] was determined as 133 days.
Take `CN[C@@H]1[C@H](O[C@H]2[C@H](O[C@H]3[C@H](O)[C@@H](O)[C@H](N=C(N)N)[C@@H](O)[C@@H]3N=C(N)N)O[C@@H](C)[C@]2(O)C=O)O[C@@H](CO)[C@H](O)[C@H]1O` [STREPTOMYCIN]: the MIC in [17] worked out at 2 µg/mL (≈ 3.44 µM). In addition, the Activity was determined as 97.2% with Mycobacterium leprae [18], 95.7% with Mycobacterium leprae [19], 97% in the data set with Mycobacterium leprae [20] and 95% in the data set on Mycobacterium leprae [21].
On to `O=C(O)c1cn(C2CC2)c2cc(N3CCNCC3)c(F)cc2c1=O` [CIPROFLOXACIN], for which the MIC in data set [22] is 0.8 µg/mL (≈ 2.41 µM); in the data set with Mycolicibacterium aurum, less than 0.05 µg/mL; against Mycolicibacterium vaccae, 0.4 µg/mL (≈ 1.21 µM); in data set [23], 0.05 µg/mL (≈ 0.151 µM). Moreover, the Activity amounted to 28% in the data set on Mycobacterium leprae [24]; 0% with Mycobacterium leprae [25]; 21% in the data set on Mycobacterium leprae [26]; 0% in the data set on Mycobacterium leprae [27]; 19% with Mycobacterium leprae [28]; 0% in the data set with Mycobacterium leprae [29]. For the same compound, the “fractional inhibitory concentration index (FICI)” value in the data set on Mycobacterium leprae [30], in the data set on Mycobacterium leprae [31] and in the data set on Mycobacterium leprae [32] was 1 throughout.
